The test system of this assay is CEM cells HIV-1 protection, formazan growth assay. The experiment in a line: NCI AIDS Antiviral Assay. The following applies: for IC50: measured here: growth of uninfected CEM cells. Summed up:
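Human CEM cells, uninfected and HIV-1-infected, received five drug concentrations, and growth was read by soluble formazan assay. Compounds giving at least 50% protection were retested; reproducible 100% protection defined confirmed active.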

Each structure is given as a SMILES string. Values joined by “and” are separate entries in the source; they are usually repeats but may differ in a detail not shown here. Identical values can stand only once. Active and inactive are the calls of the source.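 The calls were made as follows: active = compounds giving half or more protection of infected cells from virus-caused growth loss, again on retest; inactive = the rest.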

Regarding `CN/N=C(/CCN1CCCC1)CC(c1ccccc1)c1c(O)c2ccccc2oc1=O` (configuration not stated), the EC50 is above 93.3 µM and the IC50 is 74.1 µM.

Consider `O=C1CC2C1C1C=CC2n2c(=O)n(-c3ccccc3)c(=O)n21` (configuration not stated), for which the EC50 is above 224 µM and the IC50 was above 224 µM.

As to `CN1CCCOC(c2ccc(Cl)cc2)O1` (configuration not stated), the EC50 is above 200 µM and the IC50 was above 200 µM.

Regarding `O=c1[nH]cnc2c1sc(=S)n2-c1ccccc1`, the EC50 was above 100 µM and the IC50 worked out at 70.8 µM.

Regarding `NCCNCCCCCCCCCCCCOS(=O)(=O)O`, the EC50 was above 112 µM and the IC50 was above 112 µM.

As to `OC1CSCCCSCCSCCCSC1`, the EC50 is above 17.4 µM and the IC50 was above 17.4 µM.

As to `Cc1ccc(C2=C/C(=C/c3ccc(N(CCC#N)CCC#N)cc3)C(=O)O2)cc1C`, the EC50 was above 13.2 µM and the IC50 is above 13.2 µM.

On to `CCN(CC)CCCNc1nccc2c(C)c3[nH]c4ccncc4c(=O)c3cc12`, for which the EC50 was above 174 µM and the IC50 was 1.07 µM.

In the case of `O=C1CC(C(COCc2ccccc2)OCc2ccccc2)CC(=O)N1` (configuration not stated), the EC50 is above 200 µM and the IC50 was above 200 µM.

`COc1ccc(Cc2c3cc(O)c(=O)cc-3ccn2C)cc1`: the EC50 was above 33.9 µM and the half-maximal inhibitory concentration (IC50) turned out to be 6.46 µM.

For `C=CS(=O)(=O)O`, the EC50 was above 200 µM and the IC50 is above 200 µM.

On to `Cc1nc(/C=C2\C(=O)C=Cc3ccccc32)c(O)o1`, for which the EC50 is above 102 µM and the IC50 was above 102 µM.

For the compound `CCOC(=O)N/N=C(/N)Cc1ccccc1`, the EC50 is above 200 µM and the IC50 is above 200 µM.

`O=C(c1ccc(O)cc1O)C1C(c2ccc(O)cc2)OC(c2ccc(O)cc2)C1C(=O)c1ccc(O)cc1O` (configuration not stated): the result was inactive.

As to `Cc1cccc(/C=N/NC(=S)NC(C)(C)C)n1`, the EC50 is above 200 µM and the 50% inhibitory concentration (IC50) was determined as 18.2 µM.

As to `COc1ccc(OCc2ccc3nc(-c4ccccc4)c(Cl)nc3c2)cc1`, the EC50 was above 200 µM and the IC50 turned out to be 20.4 µM.

Regarding `Cc1nc2c3c(ccc2[nH]c1=O)C(=O)c1ccccc1C3=O`, the result was inactive.

For the compound `BrC1=CCC23CC=C(Br)[C@H]4CC2(COC3)C[C@@H]1O4` (some centres not stated), the EC50 was above 200 µM and the IC50 turned out to be 25.1 µM.

As for `COC(=O)C(COC(=O)/C=C/c1ccc(OC(C)=O)c(OC(C)=O)c1)OC(=O)/C=C/c1ccc(OC(C)=O)c(OC(C)=O)c1` (configuration not stated), the EC50 was above 200 µM and the IC50 is 25.7 µM.

As for `c1ccc(C2=NN3CN(N2)c2ccccc2OCCCOc2ccccc23)cc1`, the EC50 was above 200 µM and the IC50 stood at 105 µM.

Consider `CNC(=S)NNc1ncnc2c1ncn2-c1ccc(C)cc1`, for which the EC50 was above 200 µM and the half-maximal inhibitory concentration (IC50) was determined as 57.5 µM.

As to `CC(=O)/C(=C\n1c(=S)[nH]c2ccc([N+](=O)[O-])cc21)C(=O)Nc1ccccc1C`, the EC50 was above 200 µM and the concentration for half-maximal inhibition (IC50) is 89.1 µM.

Turning to `CCOC(=O)c1cc(Br)c(-c2cc(C)no2)[nH]1`, the EC50 is above 200 µM and the IC50 was determined as 1.48 µM.

As to `CN(C)c1ccc(Cc2cc(C(C)(C)C)cc(C(C)(C)C)c2O)cc1`, the result was inactive.

For the compound `CC1(C)C2(C(N)=O)C(=O)NC(=O)C12C(=O)O` (configuration not stated), the EC50 was above 200 µM and the IC50 is above 200 µM.

As to `CCOC(=O)c1sc2nc1CSc1sc(=S)sc1SCc1nc(sc1C(=O)OCC)-c1nc(c(C(=O)OCC)s1)CSc1sc(=S)sc1SCc1nc-2sc1C(=O)OCC`, the EC50 is above 200 µM and the IC50 was above 200 µM.

In the case of `O=S(=O)(O)CCCCO`, the EC50 is above 200 µM and the IC50 was above 200 µM.

For the compound `COc1ccc(-c2cc(=O)c3cc(Cl)cc(Cl)c3o2)cc1OC`, the EC50 was above 100 µM and the IC50 is above 100 µM.

As for `C=C1CC/C=C(/C(=O)O)CC[C@H]2[C@@H]1CC2(C)C`, the EC50 was above 200 µM and the IC50 was 178 µM.

As for `COc1ccc2c(c1)C(N)=C(c1ccccc1OC)C2=O`, the EC50 is above 200 µM and the concentration for half-maximal inhibition (IC50) came to 120 µM.

`O=c1ccn([C@H]2CSC[C@@H](CO)C2)c(=O)[nH]1`: the EC50 was above 1020 µM and the IC50 is above 1020 µM.

For the compound `COC1(c2cccs2)OC(=O)c2c([N+](=O)[O-])cccc21` (configuration not stated), the result was inactive.

For the compound `C[C@@]12CCC[C@H]1[C@@H]1CC=C3C[C@@H](S)CC[C@]3(C)[C@H]1CC2`, the EC50 was above 200 µM and the IC50 was found to be 66.1 µM.

In the case of `COc1ccc(C2ON(c3ccccc3)CC=C2C)cc1` (configuration not stated), the EC50 was above 35.5 µM and the IC50 is above 35.5 µM.

For `CCO[C@]12C[C@H](OC)[C@@]3(O)CC(C1[C@H]3O)C13C4C2[C@H](OC)C1[C@](COC)(CN4CC)[C@H](O)C[C@@H]3OC` (some centres not stated), the EC50 was above 200 µM and the IC50 was found to be 1.58 µM.

On to `CSC1SCC2C(=O)N(C)C3(CC3C)C(=O)OCC(NC(=O)c3nc4ccccc4cc3O)C(=O)NC(C)C(=O)N(C)C1C(=O)N(C)C1(CC1C)C(=O)OCC(NC(=O)c1nc3ccccc3cc1O)C(=O)NC(C)C(=O)N2C` (configuration not stated), for which the EC50 is above 8.32 µM and the IC50 came to 0.00263 µM.

In the case of `COC(=O)[C@@H]1C=C[C@H](NC(C)=O)C1`, the result was inactive.

With `CC1=CC(=O)N(n2c(C)n[nH]c2=O)C1=O`, the EC50 was above 200 µM and the IC50 was above 200 µM.

For the compound `COc1cc(CC2c3cc(OC)c(OC)cc3CCN2C)c(C(=O)O)cc1OC` (configuration not stated), the outcome was inactive.

Turning to `CSc1nc(NC2OC(COC(C)=O)C(OC(C)=O)C(OC(C)=O)C2OC(C)=O)c(N=CC=Nc2c(NC3OC(COC(C)=O)C(OC(C)=O)C(OC(C)=O)C3OC(C)=O)nc(SC)n(C)c2=O)c(=O)n1C` (configuration not stated), the result was inactive.

With `CC(C)c1cc(OCC(O)CO)cc(C(C)C)c1` (configuration not stated), the EC50 was above 141 µM and the IC50 was above 141 µM.

With `O=S(c1ccccc1)C1CC2CC3(CCC21O)OCCO3` (configuration not stated), the EC50 is above 200 µM and the IC50 was above 200 µM.

With `CC(C)(C)C(=O)N(C(=S)OCc1ccccn1)c1ccccc1`, the EC50 is above 200 µM and the IC50 came to 40.7 µM.

For `CC1(C)OC(=S)N(c2ccccc2)C12C=Cc1cc3ccccc3nc1S2` (configuration not stated), the EC50 is above 3.72 µM and the IC50 was found to be 3.31 µM.

In the case of `Cc1coc2c1C1OC(=O)C3(C/C=C\C(C)C2)OC13` (configuration not stated), the EC50 was above 72.4 µM and the IC50 is above 72.4 µM.

`O=[N+]([O-])c1ccc(-[n+]2ccc3ccccc3c2)c([N+](=O)[O-])c1`: the EC50 was above 759 µM and the IC50 was 4.79 µM.

`CCOCc1c(C)cc(C)c(C2C(C(=O)c3ccccc3)N3c4ccccc4C=CC3C2(C#N)C(=O)OCC)c1C` (configuration not stated): the EC50 is above 200 µM and the IC50 worked out at 33.9 µM.

For `CC(C)S(=O)(=O)n1c(N)nc2ccc(/C(=N/O)c3ccccc3)cc21`, the concentration giving a half-maximal response (EC50) was 5.01 µM and the half-maximal inhibitory concentration (IC50) was 9.77 µM.

Turning to `CC(C)OP(=O)(OC(C)C)C1=NN(c2ccc([N+](=O)[O-])cc2)C(N)(N)S1`, the EC50 is above 617 µM and the half-inhibitory concentration (IC50) was 135 µM.

`O=P1(Cc2ccccc2)OC2CC(Cl)CC(C2)O1` (configuration not stated): the EC50 was above 126 µM and the IC50 is above 126 µM.

As for `CCCCNC(=O)Cn1c2ccc(Br)cc2c2nc3ccccc3nc21`, the EC50 was above 100 µM and the IC50 is above 100 µM.

On to `Cc1nnc2nc(N)[nH]n2c1=O`, for which the EC50 is above 200 µM and the half-inhibitory concentration (IC50) is above 200 µM.

With `CSC(SC)=C(C#N)C(N)=S`, the EC50 is above 200 µM and the IC50 worked out at 123 µM.

As for `O=C(CSc1nnc(-c2ccc(N=Cc3ccc(Cl)cc3)cc2)o1)Nc1ccccc1Cl`, the EC50 was above 269 µM and the IC50 is above 269 µM.

Regarding `COC(=O)C1Cc2c(C)cccc2C1=O` (configuration not stated), the EC50 was above 200 µM and the IC50 was 110 µM.

Regarding `CCOP(=O)(OCC)/C(C#N)=C/c1ccc(C(F)(F)F)cc1`, the EC50 was above 107 µM and the IC50 was determined as 57.5 µM.

Compound `Cn1cc(NC(=O)c2cc(NC(=O)CN=C(N)N)cn2C)cc1C(=O)NCCC(=N)N` registered an EC50 above 200 µM and an IC50 above 200 µM.

Regarding `CC(C)(C)OC(=O)Cc1ccc2c(ccn2Cc2ccccc2)c1`, the outcome was inactive.

In the case of `Cc1nn(C2OC(CO)C(O)C(F)C2O)c(=O)[nH]c1=O` (configuration not stated), the EC50 is above 200 µM and the IC50 was above 200 µM.

Take `O=C1CCCCC(=O)Nc2ccccc2-c2ccccc2N1`: the outcome was inactive.

As for `COc1ccccc1NC(=O)C(=O)Cc1cnc2ccccc2n1`, the EC50 was above 209 µM and the 50% inhibitory concentration (IC50) amounted to 138 µM.

Turning to `COc1ccc2nc(NC(=O)C(=O)CC(=O)c3ccc(Cl)cc3)sc2c1`, the outcome was inactive.

On to `OCC12C=CC(C1)c1ccccc12` (configuration not stated), for which the EC50 is above 251 µM and the concentration for half-maximal inhibition (IC50) is above 251 µM.

On to `C[N+](C)(C)CC1CCc2ccccc2C1=O` (configuration not stated), for which the EC50 is above 724 µM and the concentration for half-maximal inhibition (IC50) is 1.32 µM.

For the compound `Cc1ccc(Oc2ccccc2N)cc1`, the result was inactive.

For the compound `Cc1cnc2c(Nc3ccc(Cl)cc3)cc(N)nc2n1`, the EC50 was above 120 µM and the IC50 was determined as 4.47 µM.

With `C=CCSC(C)=O`, the EC50 is above 200 µM and the IC50 was above 200 µM.

Take `C/C(O)=C(\C=N\C(N)=S)C(=O)Nc1ccccc1`: the EC50 was above 200 µM and the IC50 was above 200 µM.

`Cc1cc(N(CCC#N)CCC#N)ccc1/C=C\C(=O)Nc1ccccc1`: the EC50 is above 692 µM and the IC50 was above 692 µM.

`Cn1c(=N)n[n+]([O-])c2ccccc21`: the EC50 was above 200 µM; the IC50 is 3.47 µM and 4.07 µM.

As to `S=C(N/N=C\c1ccccn1)N(Cc1ccccn1)Cc1ccccn1`, the EC50 was above 2 µM and the IC50 stood at 0.955 µM.

In the case of `Cc1[nH]c(=O)[nH]c(=O)c1Cc1ccc(Cl)cc1`, the EC50 was above 200 µM and the IC50 is above 200 µM.

`O=C(CCCCCCCCC(=O)N1C(=O)CC(=O)N(c2cccc(Cl)c2)C1=S)N1C(=O)CC(=O)N(c2cccc(Cl)c2)C1=S`: the EC50 was above 200 µM and the concentration for half-maximal inhibition (IC50) came out at 85.1 µM.

As to `CCCCN(CCCC)c1ccc(/C=C2/C=Cc3ccccc32)cc1`, the EC50 was above 11.2 µM and the IC50 was above 11.2 µM.

For orientation: EC50 means the concentration at which the effect is half-maximal. Broadly, the IC50 is the concentration at which inhibition is half-maximal.

For the origin of these results see PubChem BioAssay AID179 (DTP/NCI, 2004).
